Experimental data: US20240317741A1, “NAPHTHYRIDINE DERIVATIVE AS ATR INHIBITOR AND METHOD FOR PREPARING SAME” (WIGEN BIOMEDICINE TECHNOLOGY (SHANGHAI) CO., LTD., priority 2021, published 2024)

Columns and labels:
MIA PaCa-2 cells [1] = assay: In-vitro anti-proliferative activity in combination with gemcitabine against MIA PaCa-2 cells; assay type: cell-based; conditions: in combination with 20 nM gemcitabine, 72 h after dosing
Protocol: MIA PaCa-2 cells were seeded on a 384-well plate at 3000 cells/well, and 20 nM gemcitabine was added. After overnight adherence culture, DMSO or the compounds serially diluted 1:5 from 100 nM were added. […] The inhibition percentage of viable cells by the compounds was calculated by comparing with the DMSO group, and the IC50 value was calculated.

MIA PaCa-2 cells [2] = assay: In-vitro anti-proliferative activity against MIA PaCa-2 cells; assay type: cell-based; conditions: Homo sapiens, 72 h after dosing, intracellular ATP content
Protocol: MIA PaCa-2 cells were seeded on a 384-well plate at 3000 cells/well. After overnight adherence culture, DMSO or the compounds serially diluted 1:5 from 5 μM were added. […] The inhibition percentage of viable cells by the compounds was calculated by comparing with the DMSO group, and the IC50 value was calculated.

[3] = Liver microsomal stability (mouse); assay type: in vitro ADME; conditions: mouse liver microsomes, 1 μM compound, NADPH regeneration system, 37° C.; read-out: T1/2 (min) Mouse
Protocol: (§1) After 1 μM compound was incubated with 500 µg/mL of human or mouse liver microsomes and a NADPH regeneration system at 37° C. for different times, respectively, LC-MS-MS was used to analyze the remaining amount of the compound and calculate T1/2.

[4] = Liver microsomal stability (human); assay type: in vitro ADME; conditions: human liver microsomes, 1 μM compound, NADPH regeneration system, 37° C.; read-out: T1/2 (min) Human
Protocol: as §1

[5] = system: Human colon cancer LOVO cells; assay: In vivo efficacy in LoVo model; design: species or system nude mouse; conditions: LoVo model in nude mice, 20 mpk BID PO, days 1-3, 8-10, 15-17 and day 21
Protocol: After being subcultured, the cells were collected when they reached the desired amount. 1×10^7 LOVO cells were injected into the left dorsal side of each nude mouse, and the animals were randomly grouped for administration after tumors grew to 100-200 mm^3. The groups were as follows: a solvent control group of 8 mice and a compound group of 8 mice. The compounds were administered orally 3 days a week and interrupted for 4 days, for 21 consecutive days. The vehicle was a 0.5% MC suspension containing 1% tween-80. On Tuesday and Thursday each week, tumor volumes and body weight of the mice were measured, and the nude mice were sacrificed on day 21 after the administration. […] The toxicity of the compounds was evaluated according to the body weight of the mice.

[6] = In vivo pharmacokinetic experiment in mice; design: species or system CD-1 female mice; conditions: female, CD-1, mouse, plasma; for Cmax: read-out: Cmax; for Tmax: read-out: Tmax; for Vd: read-out: Vdss
Protocol: CD-1 female mice aged 7 to 10 weeks were intravenously administered and orally administered at a dose of 2 mg/kg and 10 mg/kg, respectively. The mice were fasted for at least 12 h before the administration and given food 4 h after the administration, and they were given ad libitum access to water during the experiment.
On the day of the experiment, animals in the intravenous group were administered the corresponding compound by single injection via the tail vein at an administration volume of 10 mL/kg, and animals in the oral group were administered the corresponding compound by single intragastric injection at an administration volume of 10 mL/kg. The animals were weighed before administration, and the administration volume was calculated according to the body weight. The sample collection time was 0.083 h, 0.167 h, 0.5 h, 1 h, 2 h, 4 h, 8 h and 24 h. About 200 μL of whole blood was collected through the orbital venous plexus at each time point and used to prepare plasma for concentration determination by high performance liquid chromatography-tandem mass spectrometry (LC-MS/MS). The plasma concentrations were processed using a non-compartmental model of Winnolin pharmacokinetic software, and the pharmacokinetic parameters were calculated using a linear-log trapezoidal method.

[7] = system: Human colon cancer HT29 cells; assay: In vivo efficacy in HT-29 model, alone and with gemcitabine; design: species or system nude mouse; conditions: HT-29 model in nude mice, day 21
Protocol: After being subcultured, the cells were collected when they reached the desired amount. 1×10^7 HT29 cells were injected into the left dorsal side of each nude mouse, and the animals were randomly grouped for administration after tumors grew to 100-200 mm^3. The groups were as follows: a solvent control group of 6 mice, a single drug group of 15 mg/kg gemcitabine (GMC), and a combination group of 15 mg/kg gemcitabine and a compound. Gemcitabine was administered intraperitoneally with PBS as a vehicle once a week. The compounds were administered 3 days a week and interrupted for 4 days (3 on/4 off), for 21 consecutive days, and the vehicle was a 0.5% MC suspension containing 1% tween-80. On Tuesday and Thursday each week, tumor volumes and body weight of the mice were measured, and the nude mice were sacrificed on day 21 after the administration. […] The toxicity of the compounds was evaluated according to the body weight of the mice.

[8] = compound 20 mpk BID PO 3 on/4 off + GMC 15 mpk QW IP
[9] = single agent, 20 mpk BID PO, 3on/4off

C[C@@H]1COCCN1c1cc(C2(C#N)CCCC2)c2ccnc(-c3ccn[nH]3)c2n1 [Compound 27]
IC50 (MIA PaCa-2 cells [1]): 0.00148 µM | IC50 (MIA PaCa-2 cells [2]): 1 to 5 µM | half-life at 1 μM [3]: 9.14 min | half-life at 1 μM [4]: 27.2 min | TGI(%) [5]: 62.7%

C[C@@H]1COCCN1c1cc(C2(C#N)CCC(O)CC2)c2ccnc(-c3ccn[nH]3)c2n1 (stereo partly drawn) [Compound 33, (R)-4-hydroxy-1-(2-(3-methylmorpholine)-8-(1H-pyrazol-5-yl)-1,7-naphthyridin-4-yl)cyclohexane-1-carbonitrile]
AUC(0-t) ([6]; Oral administration (10 mg/kg)): 937 ng·h/mL | bioavailability ([6]; Oral administration (10 mg/kg)): 31.8% | half-life ([6]; Oral administration (10 mg/kg)): 41.4 min | Cmax ([6]; Oral administration (10 mg/kg)): 1010 ng/mL | Tmax ([6]; Oral administration (10 mg/kg)): 30 min | AUC(0-t) ([6]; iv, Injection (2 mg/kg)): 588 ng·h/mL | clearance ([6]; iv, Injection (2 mg/kg)): 56.6 mL/min/kg | half-life ([6]; iv, Injection (2 mg/kg)): 96.6 min | Vd ([6]; iv, Injection (2 mg/kg)): 1.27 L/kg | IC50 (MIA PaCa-2 cells [1]): 0.00108 µM | IC50 (MIA PaCa-2 cells [2]): < 1 µM | TGI(%) [7, 8]: 82.3% | TGI(%) [7, 9]: 57.4% | half-life at 1 μM [3]: 19.6 min | half-life at 1 μM [4]: 632 min | TGI(%) [5]: 79.1%

C[C@@H]1COCCN1c1cc(C2(C#N)CCC(N(C)C)CC2)c2ccnc(-c3ccn[nH]3)c2n1 (stereo partly drawn) [Compound 34, (R)-4-(dimethylamino)-1-(2-(3-methylmorpholine)-8-(1H-pyrazol-5-yl)-1,7-naphthyridin-4-yl)cyclohexane-1-carbonitrile]
IC50 (MIA PaCa-2 cells [1]): 0.000624 µM | IC50 (MIA PaCa-2 cells [2]): < 1 µM | TGI(%) [7, 8]: 78.1% | TGI(%) [7, 9]: 58.3% | half-life at 1 μM [3]: 52.4 min | half-life at 1 μM [4]: 61.4 min | TGI(%) [5]: 81.4%

C[C@@H]1COCCN1c1cc(C2(C#N)CCC(N3CCCC3)CC2)c2ccnc(-c3ccn[nH]3)c2n1 (stereo partly shown) [Compound 35]
IC50 (MIA PaCa-2 cells [1]): 0.000661 µM | IC50 (MIA PaCa-2 cells [2]): < 1 µM

C[C@@H]1COCCN1c1cc(C2(C#N)CCN(C)CC2)c2ccnc(-c3ccn[nH]3)c2n1 [Compound 43]
AUC(0-t) ([6]; Oral administration (10 mg/kg)): 439 ng·h/mL | bioavailability ([6]; Oral administration (10 mg/kg)): 35.5% | half-life ([6]; Oral administration (10 mg/kg)): 47.4 min | Cmax ([6]; Oral administration (10 mg/kg)): 616 ng/mL | Tmax ([6]; Oral administration (10 mg/kg)): 15 min | AUC(0-t) ([6]; iv, Injection (2 mg/kg)): 247 ng·h/mL | clearance ([6]; iv, Injection (2 mg/kg)): 135 mL/min/kg | half-life ([6]; iv, Injection (2 mg/kg)): 13.2 min | Vd ([6]; iv, Injection (2 mg/kg)): 1.79 L/kg | IC50 (MIA PaCa-2 cells [1]): 0.00124 µM | IC50 (MIA PaCa-2 cells [2]): < 1 µM | TGI(%) [7, 8]: 84.4% | TGI(%) [7, 9]: 51.2% | half-life at 1 μM [3]: 18.9 min | half-life at 1 μM [4]: 9.44 min | TGI(%) [5]: 75.3%

COC1CCC(C#N)(c2cc(N3CCOC[C@H]3C)nc3c(-c4ccn[nH]4)nccc23)CC1 (stereo partly drawn) [Compound 53, (R)-4-methoxy-1-(2-(3-methylmorpholine)-8-(1H-pyrazol-5-yl)-1,7-naphthyridin-4-yl)cyclohexane-1-carbonitrile]
AUC(0-t) ([6]; Oral administration (10 mg/kg)): 669 ng·h/mL | bioavailability ([6]; Oral administration (10 mg/kg)): 30.2% | half-life ([6]; Oral administration (10 mg/kg)): 87 min | Cmax ([6]; Oral administration (10 mg/kg)): 299 ng/mL | Tmax ([6]; Oral administration (10 mg/kg)): 30 min | AUC(0-t) ([6]; iv, Injection (2 mg/kg)): 444 ng·h/mL | clearance ([6]; iv, Injection (2 mg/kg)): 75.1 mL/min/kg | half-life ([6]; iv, Injection (2 mg/kg)): 16.2 min | Vd ([6]; iv, Injection (2 mg/kg)): 1.61 L/kg | IC50 (MIA PaCa-2 cells [2]): < 1 µM | half-life at 1 μM [3]: 7.78 min | half-life at 1 μM [4]: 24.8 min

C[C@@H]1COCCN1c1cc(C2(C#N)CCN(C3CCCC3)CC2)c2ccnc(-c3ccn[nH]3)c2n1 [Compound 69]
IC50 (MIA PaCa-2 cells [2]): < 1 µM | half-life at 1 μM [3]: 7.52 min | half-life at 1 μM [4]: 5.9 min

C[C@@H]1COCCN1c1cc(C2(C#N)CCN(C3COC3)CC2)c2ccnc(-c3ccn[nH]3)c2n1 [Compound 70]
IC50 (MIA PaCa-2 cells [2]): < 1 µM

C[C@@H]1COCCN1c1cc(C2(C#N)CCN(C3CN(C)C3)CC2)c2ccnc(-c3ccn[nH]3)c2n1 [Compound 72]
IC50 (MIA PaCa-2 cells [2]): < 1 µM

C[C@@H]1COCCN1c1cc(C2(C#N)CCN(C3CCOC3)CC2)c2ccnc(-c3ccn[nH]3)c2n1 (stereo partly shown) [Compound 73]
IC50 (MIA PaCa-2 cells [2]): < 1 µM

C[C@@H]1COCCN1c1cc(C2(C#N)CCN(C3CCN(C)C3)CC2)c2ccnc(-c3ccn[nH]3)c2n1 (stereo partly shown) [Compound 74]
IC50 (MIA PaCa-2 cells [2]): < 1 µM

COCCN1CCC(C#N)(c2cc(N3CCOC[C@H]3C)nc3c(-c4ccn[nH]4)nccc23)CC1 [Compound 75]
IC50 (MIA PaCa-2 cells [2]): < 1 µM

C[C@@H]1COCCN1c1cc(C2(C#N)CCN(CC(N)=O)CC2)c2ccnc(-c3ccn[nH]3)c2n1 [Compound 76]
IC50 (MIA PaCa-2 cells [2]): < 1 µM

C[C@@H]1COCCN1c1cc(C2(C#N)CCN(CC(=O)N(C)C)CC2)c2ccnc(-c3ccn[nH]3)c2n1 [Compound 77]
IC50 (MIA PaCa-2 cells [2]): < 1 µM

C[C@@H]1COCCN1c1cc(C2(C#N)CCN(CCN(C)C)CC2)c2ccnc(-c3ccn[nH]3)c2n1 [Compound 78]
IC50 (MIA PaCa-2 cells [2]): < 1 µM

C[C@@H]1COCCN1c1cc(C2(C#N)CCN(CCS(C)(=O)=O)CC2)c2ccnc(-c3ccn[nH]3)c2n1 [Compound 80]
IC50 (MIA PaCa-2 cells [2]): < 1 µM

CCOP(=O)(CCN1CCC(C#N)(c2cc(N3CCOC[C@H]3C)nc3c(-c4ccn[nH]4)nccc23)CC1)OCC [Compound 81]
IC50 (MIA PaCa-2 cells [2]): < 1 µM

C[C@@H]1COCCN1c1cc(C2(C#N)CCN(CC3CC3)CC2)c2ccnc(-c3ccn[nH]3)c2n1 [Compound 82]
IC50 (MIA PaCa-2 cells [2]): < 1 µM

C[C@@H]1COCCN1c1cc(C2(C#N)CCN(CC3CCC3)CC2)c2ccnc(-c3ccn[nH]3)c2n1 [Compound 83]
IC50 (MIA PaCa-2 cells [2]): < 1 µM

C[C@@H]1COCCN1c1cc(C2(C#N)CCN(CC3CCOC3)CC2)c2ccnc(-c3ccn[nH]3)c2n1 (stereo partly shown) [Compound 84]
IC50 (MIA PaCa-2 cells [2]): < 1 µM

C[C@@H]1COCCN1c1cc(C2(C#N)CC3CCC(C2)O3)c2ccnc(-c3ccn[nH]3)c2n1 (stereo partly drawn) [Compound 85, 3-(2-((R)-3-methylmorpholino)-8-(1H-pyrazol-5-yl)-1,7-naphthyridin-4-yl)-8-oxabicyclo[3.2.1]octane-3-carbonitrile]
IC50 (MIA PaCa-2 cells [2]): < 1 µM

Nc1ccn([C@@H]2O[C@H](CO)[C@@H](O)C2(F)F)c(=O)n1 [GMC, gemcitabine, reference compound]
TGI(%) ([7]; GMC alone 15 mpk QW IP, once a week): 50.7%
